From US9422297B2, “Tricyclic compounds having cytostatic and/or cytotoxic activity and methods of use thereof” (Duquesne University of the Holy Ghost, priority 2007, dated 2016)

What was measured:
NCWADR-RES = assay: NCI In-Vitro Testing, Breast Cancer; format: cell-based
MOLT-4 = assay: NCI In-Vitro Testing, Leukemia; format: cell-based
LOXIMVI = assay: NCI In-Vitro Testing, Melanoma; format: cell-based
IGROV1 = assay: NCI In-Vitro Testing, Ovarian Cancer; format: cell-based
HS 576T = assay: NCI In-Vitro Testing, Breast Cancer; format: cell-based
HCT-15 = assay: NCI In-Vitro Testing, Colon Cancer; format: cell-based
SF-258 = assay: NCI In-Vitro Testing, CNS Cancer; format: cell-based
M14 = assay: NCI In-Vitro Testing, Melanoma; format: cell-based
K-562 = assay: NCI In-Vitro Testing, Leukemia; format: cell-based
Flk-1 kinase = Flk-1 kinase (Homo sapiens (Human), UniProt P35968); assay: Flk-1 kinase inhibition; format: biochemical; details: Table 3
Chain of Flk-1 kinase (P35968 20-1356): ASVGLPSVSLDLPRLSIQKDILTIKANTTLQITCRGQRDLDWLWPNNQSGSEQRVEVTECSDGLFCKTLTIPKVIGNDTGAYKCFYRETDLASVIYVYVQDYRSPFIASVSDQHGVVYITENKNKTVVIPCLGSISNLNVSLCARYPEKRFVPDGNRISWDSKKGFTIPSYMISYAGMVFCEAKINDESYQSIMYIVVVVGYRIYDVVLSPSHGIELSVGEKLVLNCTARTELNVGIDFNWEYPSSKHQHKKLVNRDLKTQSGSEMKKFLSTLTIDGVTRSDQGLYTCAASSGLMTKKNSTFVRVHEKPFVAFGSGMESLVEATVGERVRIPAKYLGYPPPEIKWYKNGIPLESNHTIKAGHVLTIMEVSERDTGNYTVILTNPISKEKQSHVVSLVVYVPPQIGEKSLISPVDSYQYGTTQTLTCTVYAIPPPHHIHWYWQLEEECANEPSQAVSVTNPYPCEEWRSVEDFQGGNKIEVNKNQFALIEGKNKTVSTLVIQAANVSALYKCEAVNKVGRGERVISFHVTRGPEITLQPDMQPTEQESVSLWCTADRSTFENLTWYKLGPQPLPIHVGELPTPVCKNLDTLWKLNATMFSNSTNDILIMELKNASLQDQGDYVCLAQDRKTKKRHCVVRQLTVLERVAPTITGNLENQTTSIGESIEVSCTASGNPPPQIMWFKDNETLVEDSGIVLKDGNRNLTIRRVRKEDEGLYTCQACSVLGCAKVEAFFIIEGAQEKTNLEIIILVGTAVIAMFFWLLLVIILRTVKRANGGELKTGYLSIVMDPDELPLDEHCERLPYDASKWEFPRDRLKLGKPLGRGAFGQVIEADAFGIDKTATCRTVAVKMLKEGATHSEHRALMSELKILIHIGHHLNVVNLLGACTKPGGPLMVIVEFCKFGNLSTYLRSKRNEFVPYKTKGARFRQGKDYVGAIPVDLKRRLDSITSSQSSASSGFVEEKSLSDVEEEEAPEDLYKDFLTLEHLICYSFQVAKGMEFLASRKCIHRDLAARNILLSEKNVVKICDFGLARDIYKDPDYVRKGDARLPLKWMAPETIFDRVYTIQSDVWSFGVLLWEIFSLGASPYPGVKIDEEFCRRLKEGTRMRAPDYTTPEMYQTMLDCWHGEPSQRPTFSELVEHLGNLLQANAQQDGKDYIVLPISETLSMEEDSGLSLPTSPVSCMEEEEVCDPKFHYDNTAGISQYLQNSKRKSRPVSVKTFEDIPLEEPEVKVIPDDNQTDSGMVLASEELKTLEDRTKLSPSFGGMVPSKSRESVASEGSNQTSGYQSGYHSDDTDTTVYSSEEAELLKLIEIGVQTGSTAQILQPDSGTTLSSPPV

OVCAR-4 = assay: NCI In-Vitro Testing, Ovarian Cancer; format: cell-based
COLO 205 = assay: NCI In-Vitro Testing, Colon Cancer; format: cell-based
A431 cytotoxicity assay = format: cell-based; details: human, A431 cells; Table 3
U251 = assay: NCI In-Vitro Testing, CNS Cancer; format: cell-based
B16-F10 tumors = assay: B16-F10 tumor model in vivo; details: athymic mice, 25 mg/kg three times weekly, vs methotrexate and sham
RPMI-8226 = assay: NCI In-Vitro Testing, Leukemia; format: cell-based
MALME-3M = assay: NCI In-Vitro Testing, Melanoma; format: cell-based
OVCAR-3 = assay: NCI In-Vitro Testing, Ovarian Cancer; format: cell-based
EGFR kinase = EGFR kinase (Homo sapiens (Human), UniProt P00533); assay: EGFR kinase inhibition; format: biochemical; details: Table 3; read-out: EGFR kinase
Chain of EGFR kinase (P00533 25-1210): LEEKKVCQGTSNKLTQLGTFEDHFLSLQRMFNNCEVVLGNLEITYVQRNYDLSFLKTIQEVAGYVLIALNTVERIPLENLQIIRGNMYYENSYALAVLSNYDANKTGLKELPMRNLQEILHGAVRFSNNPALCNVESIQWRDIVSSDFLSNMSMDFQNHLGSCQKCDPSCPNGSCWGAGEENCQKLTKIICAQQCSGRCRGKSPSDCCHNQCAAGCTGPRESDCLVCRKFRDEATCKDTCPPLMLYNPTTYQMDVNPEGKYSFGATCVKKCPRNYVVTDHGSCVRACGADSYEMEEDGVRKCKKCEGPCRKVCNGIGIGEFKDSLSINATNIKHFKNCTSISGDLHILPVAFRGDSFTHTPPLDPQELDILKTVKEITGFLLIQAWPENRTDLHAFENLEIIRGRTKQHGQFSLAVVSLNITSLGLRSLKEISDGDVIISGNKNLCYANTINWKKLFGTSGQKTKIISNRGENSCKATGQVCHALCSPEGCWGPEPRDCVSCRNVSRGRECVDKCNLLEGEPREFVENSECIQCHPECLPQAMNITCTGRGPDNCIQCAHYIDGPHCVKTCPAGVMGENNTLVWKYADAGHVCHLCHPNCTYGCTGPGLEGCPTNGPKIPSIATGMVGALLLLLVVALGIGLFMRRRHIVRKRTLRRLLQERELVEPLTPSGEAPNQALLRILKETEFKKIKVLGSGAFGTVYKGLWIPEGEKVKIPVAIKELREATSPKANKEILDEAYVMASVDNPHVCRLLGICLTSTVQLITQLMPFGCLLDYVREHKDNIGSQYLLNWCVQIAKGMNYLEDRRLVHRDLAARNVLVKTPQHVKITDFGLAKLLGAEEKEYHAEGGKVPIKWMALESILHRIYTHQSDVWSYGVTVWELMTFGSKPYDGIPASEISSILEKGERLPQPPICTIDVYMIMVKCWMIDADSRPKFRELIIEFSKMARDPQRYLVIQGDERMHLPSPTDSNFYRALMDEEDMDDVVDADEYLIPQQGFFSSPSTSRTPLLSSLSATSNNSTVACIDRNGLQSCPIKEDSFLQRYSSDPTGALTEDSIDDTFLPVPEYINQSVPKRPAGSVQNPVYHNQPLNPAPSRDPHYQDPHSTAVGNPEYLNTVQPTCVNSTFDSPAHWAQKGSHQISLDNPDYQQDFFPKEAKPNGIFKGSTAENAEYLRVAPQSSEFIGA

OVCAR-6 = assay: NCI In-Vitro Testing, Ovarian Cancer; format: cell-based

Nc1nc2c(c(Nc3ccc(Cl)cc3)n1)-c1ccccc1C2 [AAG145-136] showed a GI50 (NCWADR-RES) of 7.87E−7 Molar, an LC50 (NCWADR-RES) of over 1.00E−4 Molar and a TGI (NCWADR-RES) of over 1.00E−4 Molar. The “Percent Growth” value (NCWADR-RES; Log10 Concentration −4.0 Molar) was 24%, the “Percent Growth” value (NCWADR-RES; Log10 Concentration −5.0 Molar) was 29% and the “Percent Growth” value (NCWADR-RES; Log10 Concentration −6.0 Molar) was 44%. The “Percent Growth” value (NCWADR-RES; Log10 Concentration −7.0 Molar) was 100%, the “Percent Growth” value (NCWADR-RES; Log10 Concentration −8.0 Molar) was 100% and the GI50 (MOLT-4) was 6.61E−8 Molar. For the same compound, the LC50 (MOLT-4) was over 1.00E−4 Molar, the TGI (MOLT-4) was over 1.00E−4 Molar and the “Percent Growth” value (MOLT-4; Log10 Concentration −4.0 Molar) was 21%. For the same compound, the “Percent Growth” value (MOLT-4; Log10 Concentration −5.0 Molar) was 11%, the “Percent Growth” value (MOLT-4; Log10 Concentration −6.0 Molar) was 14% and the “Percent Growth” value (MOLT-4; Log10 Concentration −7.0 Molar) was 39%. The “Percent Growth” value (MOLT-4; Log10 Concentration −8.0 Molar) was 99%, the GI50 (LOXIMVI) was 3.08E−7 Molar and the LC50 (LOXIMVI) was over 1.00E−4 Molar. The TGI (LOXIMVI) was over 1.00E−4 Molar, the “Percent Growth” value (LOXIMVI; Log10 Concentration −4.0 Molar) was 15% and the “Percent Growth” value (LOXIMVI; Log10 Concentration −5.0 Molar) was 11%. For the same compound, the “Percent Growth” value (LOXIMVI; Log10 Concentration −6.0 Molar) was 16%, the “Percent Growth” value (LOXIMVI; Log10 Concentration −7.0 Molar) was 52% and the “Percent Growth” value (LOXIMVI; Log10 Concentration −8.0 Molar) was 106%. It also gave a GI50 (IGROV1) of 2.87E−7 Molar, an LC50 (IGROV1) of over 1.00E−4 Molar and a TGI (IGROV1) of over 1.00E−4 Molar. For the same compound, the “Percent Growth” value (IGROV1; Log10 Concentration −4.0 Molar) was 11%, the “Percent Growth” value (IGROV1; Log10 Concentration −5.0 Molar) was 6% and the “Percent Growth” value (IGROV1; Log10 Concentration −6.0 Molar) was 24%. The “Percent Growth” value (IGROV1; Log10 Concentration −7.0 Molar) was 72%, the “Percent Growth” value (IGROV1; Log10 Concentration −8.0 Molar) was 93% and the GI50 (HS 576T) was 2.22E−6 Molar. The LC50 (HS 576T) was over 1.00E−4 Molar, the TGI (HS 576T) was 2.94E−5 Molar and the “Percent Growth” value (HS 576T; Log10 Concentration −4.0 Molar) was −13%. For the same compound, the “Percent Growth” value (HS 576T; Log10 Concentration −5.0 Molar) was 11%, the “Percent Growth” value (HS 576T; Log10 Concentration −6.0 Molar) was 71% and the “Percent Growth” value (HS 576T; Log10 Concentration −7.0 Molar) was 97%. The “Percent Growth” value (HS 576T; Log10 Concentration −8.0 Molar) was 104%, the GI50 (HCT-15) was 4.34E−7 Molar and the LC50 (HCT-15) was over 1.00E−4 Molar. The TGI (HCT-15) was 1.22E−5 Molar, the “Percent Growth” value (HCT-15; Log10 Concentration −4.0 Molar) was −39% and the “Percent Growth” value (HCT-15; Log10 Concentration −5.0 Molar) was 4%. For the same compound, the “Percent Growth” value (HCT-15; Log10 Concentration −6.0 Molar) was 29%, the “Percent Growth” value (HCT-15; Log10 Concentration −7.0 Molar) was 68% and the “Percent Growth” value (HCT-15; Log10 Concentration −8.0 Molar) was 94%. The GI50 (SF-258) was 8.62E−8 Molar, the LC50 (SF-258) was over 1.00E−4 Molar and the TGI (SF-258) was over 1.00E−4 Molar. For the same compound, the “Percent Growth” value (SF-258; Log10 Concentration −4.0 Molar) was 21%, the “Percent Growth” value (SF-258; Log10 Concentration −5.0 Molar) was 19% and the “Percent Growth” value (SF-258; Log10 Concentration −6.0 Molar) was 27%. For the same compound, the “Percent Growth” value (SF-258; Log10 Concentration −7.0 Molar) was 45%, the “Percent Growth” value (SF-258; Log10 Concentration −8.0 Molar) was 104% and the GI50 (M14) was 4.31E−7 Molar. For the same compound, the LC50 (M14) was over 1.00E−4 Molar, the TGI (M14) was over 1.00E−4 Molar and the “Percent Growth” value (M14; Log10 Concentration −4.0 Molar) was 34%. The “Percent Growth” value (M14; Log10 Concentration −5.0 Molar) was 21%, the “Percent Growth” value (M14; Log10 Concentration −6.0 Molar) was 31% and the “Percent Growth” value (M14; Log10 Concentration −7.0 Molar) was 84%. For the same compound, the “Percent Growth” value (M14; Log10 Concentration −8.0 Molar) was 102%, the GI50 (K-562) was 3.56E−7 Molar and the LC50 (K-562) was over 1.00E−4 Molar. The TGI (K-562) was over 1.00E−4 Molar, the “Percent Growth” value (K-562; Log10 Concentration −4.0 Molar) was 26% and the “Percent Growth” value (K-562; Log10 Concentration −5.0 Molar) was 16%. For the same compound, the “Percent Growth” value (K-562; Log10 Concentration −6.0 Molar) was 20%, the “Percent Growth” value (K-562; Log10 Concentration −7.0 Molar) was 89% and the “Percent Growth” value (K-562; Log10 Concentration −8.0 Molar) was 103%. It also gave an IC50 (Flk-1 kinase) of over 200 µM, a GI50 (OVCAR-4) of 4.16E−6 Molar and an LC50 (OVCAR-4) of over 1.00E−4 Molar. The TGI (OVCAR-4) was over 1.00E−4 Molar, the “Percent Growth” value (OVCAR-4; Log10 Concentration −4.0 Molar) was 19% and the “Percent Growth” value (OVCAR-4; Log10 Concentration −5.0 Molar) was 30%. The “Percent Growth” value (OVCAR-4; Log10 Concentration −6.0 Molar) was 82%, the “Percent Growth” value (OVCAR-4; Log10 Concentration −7.0 Molar) was 84% and the “Percent Growth” value (OVCAR-4; Log10 Concentration −8.0 Molar) was 83%. It also gave a GI50 (COLO 205) of 6.38E−7 Molar, an LC50 (COLO 205) of over 1.00E−4 Molar and a TGI (COLO 205) of over 1.00E−4 Molar. For the same compound, the “Percent Growth” value (COLO 205; Log10 Concentration −4.0 Molar) was 11%, the “Percent Growth” value (COLO 205; Log10 Concentration −5.0 Molar) was 11% and the “Percent Growth” value (COLO 205; Log10 Concentration −6.0 Molar) was 41%. The “Percent Growth” value (COLO 205; Log10 Concentration −7.0 Molar) was 86%, the “Percent Growth” value (COLO 205; Log10 Concentration −8.0 Molar) was 99% and the IC50 (A431 cytotoxicity assay) was 9.7 µM. The GI50 (U251) was 1.84E−7 Molar, the LC50 (U251) was over 1.00E−4 Molar and the TGI (U251) was 5.66E−5 Molar. The “Percent Growth” value (U251; Log10 Concentration −4.0 Molar) was −6%, the “Percent Growth” value (U251; Log10 Concentration −5.0 Molar) was 19% and the “Percent Growth” value (U251; Log10 Concentration −6.0 Molar) was 29%. For the same compound, the “Percent Growth” value (U251; Log10 Concentration −7.0 Molar) was 53%, the “Percent Growth” value (U251; Log10 Concentration −8.0 Molar) was 98% and the “antitumor activity (tumor volume, tumor growth rate)” value (B16-F10 tumors) was “potent antitumor activity”. It also gave a GI50 (RPMI-8226) of 4.89E−7 Molar, an LC50 (RPMI-8226) of over 1.00E−4 Molar and a TGI (RPMI-8226) of over 1.00E−4 Molar. For the same compound, the “Percent Growth” value (RPMI-8226; Log10 Concentration −4.0 Molar) was 7%, the “Percent Growth” value (RPMI-8226; Log10 Concentration −5.0 Molar) was 11% and the “Percent Growth” value (RPMI-8226; Log10 Concentration −6.0 Molar) was 32%. The “Percent Growth” value (RPMI-8226; Log10 Concentration −7.0 Molar) was 89%, the “Percent Growth” value (RPMI-8226; Log10 Concentration −8.0 Molar) was 96% and the GI50 (MALME-3M) was over 1.00E−4 Molar. For the same compound, the LC50 (MALME-3M) was over 1.00E−4 Molar, the TGI (MALME-3M) was over 1.00E−4 Molar and the “Percent Growth” value (MALME-3M; Log10 Concentration −4.0 Molar) was 78%. For the same compound, the “Percent Growth” value (MALME-3M; Log10 Concentration −5.0 Molar) was 64%, the “Percent Growth” value (MALME-3M; Log10 Concentration −6.0 Molar) was 106% and the “Percent Growth” value (MALME-3M; Log10 Concentration −7.0 Molar) was 97%. The “Percent Growth” value (MALME-3M; Log10 Concentration −8.0 Molar) was 96%, the GI50 (OVCAR-3) was 2.48E−6 Molar and the LC50 (OVCAR-3) was over 1.00E−4 Molar. The TGI (OVCAR-3) was over 1.00E−4 Molar, the “Percent Growth” value (OVCAR-3; Log10 Concentration −4.0 Molar) was 14% and the “Percent Growth” value (OVCAR-3; Log10 Concentration −5.0 Molar) was 22%. For the same compound, the “Percent Growth” value (OVCAR-3; Log10 Concentration −6.0 Molar) was 66%, the “Percent Growth” value (OVCAR-3; Log10 Concentration −7.0 Molar) was 86% and the “Percent Growth” value (OVCAR-3; Log10 Concentration −8.0 Molar) was 91%. The IC50 (EGFR kinase) was 26 µM, the GI50 (OVCAR-6) was 2.16E−7 Molar and the LC50 (OVCAR-6) was over 1.00E−4 Molar. The TGI (OVCAR-6) was over 1.00E−4 Molar, the “Percent Growth” value (OVCAR-6; Log10 Concentration −4.0 Molar) was 18% and the “Percent Growth” value (OVCAR-6; Log10 Concentration −5.0 Molar) was 25%. For the same compound, the “Percent Growth” value (OVCAR-6; Log10 Concentration −6.0 Molar) was 36%, the “Percent Growth” value (OVCAR-6; Log10 Concentration −7.0 Molar) was 57% and the “Percent Growth” value (OVCAR-6; Log10 Concentration −8.0 Molar) was 102%.
